Test results from patent US8470828B2, “Anellated pyridine compounds” (Hoffmann-La Roche Inc., priority 2010, dated 2013).

Assays:
[1] = target: human D3 receptor (Homo sapiens, UniProt P35462); experiment: Radioligand binding to cloned human D3 receptor expressed in HEK-293 EBNA cells ([3H]-spiperone)
[2] = target: T1, human D2 receptor (Homo sapiens, UniProt P14416); experiment: Radioligand binding to cloned human D2 receptor expressed in HEK-293 EBNA cells ([3H]-spiperone); conditions: HEK293 EBNA cell membranes, approximately 0.7 nM [3H]-spiperone, 1 h at RT
T1 construct: expressed in transfected cells; host or cells: HEK293 EBNA cells, transient transfection; membrane preparation
T1 sequence (P14416 whole entry): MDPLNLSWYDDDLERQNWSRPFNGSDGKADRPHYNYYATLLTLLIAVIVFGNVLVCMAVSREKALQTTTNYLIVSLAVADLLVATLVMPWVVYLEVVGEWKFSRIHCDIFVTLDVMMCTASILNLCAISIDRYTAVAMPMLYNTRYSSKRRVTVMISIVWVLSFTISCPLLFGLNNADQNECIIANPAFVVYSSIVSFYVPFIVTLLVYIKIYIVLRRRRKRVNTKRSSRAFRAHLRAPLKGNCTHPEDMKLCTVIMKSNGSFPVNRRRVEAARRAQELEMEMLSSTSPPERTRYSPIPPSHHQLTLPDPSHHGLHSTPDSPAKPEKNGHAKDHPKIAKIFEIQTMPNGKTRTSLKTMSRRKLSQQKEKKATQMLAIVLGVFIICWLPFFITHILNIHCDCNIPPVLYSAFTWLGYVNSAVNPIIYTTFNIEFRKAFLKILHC

[3] = target: human 5-HT2A receptor (Homo sapiens, UniProt P28223); experiment: Radioligand binding to cloned human 5-HT2A receptor expressed in HEK-293 EBNA cells ([3H]-ketanserin)
Chain of human 5-HT2A receptor (P28223 whole entry): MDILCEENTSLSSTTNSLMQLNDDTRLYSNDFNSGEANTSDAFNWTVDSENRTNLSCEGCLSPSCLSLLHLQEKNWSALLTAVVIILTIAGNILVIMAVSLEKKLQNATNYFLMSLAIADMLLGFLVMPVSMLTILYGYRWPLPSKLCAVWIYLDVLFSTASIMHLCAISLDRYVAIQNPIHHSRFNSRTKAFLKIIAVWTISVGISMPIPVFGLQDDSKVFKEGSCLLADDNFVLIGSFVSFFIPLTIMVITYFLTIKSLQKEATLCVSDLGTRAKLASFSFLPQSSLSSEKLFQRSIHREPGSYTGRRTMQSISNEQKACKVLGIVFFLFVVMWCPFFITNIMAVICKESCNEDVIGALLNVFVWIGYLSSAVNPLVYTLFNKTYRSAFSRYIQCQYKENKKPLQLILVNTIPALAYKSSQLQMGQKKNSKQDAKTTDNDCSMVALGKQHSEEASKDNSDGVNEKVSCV

Chain of human D3 receptor (P35462 whole entry): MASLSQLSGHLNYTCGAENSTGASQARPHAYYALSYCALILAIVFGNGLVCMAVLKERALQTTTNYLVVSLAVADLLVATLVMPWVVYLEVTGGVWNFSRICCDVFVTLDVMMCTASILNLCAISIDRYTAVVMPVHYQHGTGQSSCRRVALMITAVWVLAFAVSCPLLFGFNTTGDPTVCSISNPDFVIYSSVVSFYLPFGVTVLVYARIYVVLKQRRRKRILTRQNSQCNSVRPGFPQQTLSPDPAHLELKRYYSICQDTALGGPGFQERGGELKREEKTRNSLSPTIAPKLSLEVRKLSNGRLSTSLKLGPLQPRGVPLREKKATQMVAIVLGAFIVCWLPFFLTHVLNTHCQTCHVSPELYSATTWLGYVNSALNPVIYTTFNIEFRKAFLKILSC

| SMILES | Ki [1] [nM] | Ki [2] [nM] | Ki [3] [nM] | melting point [°C] |
| --- | --- | --- | --- | --- |
| O=C(CC1CCCO1)N[C@H]1CC[C@H](CCN2CCN(c3nccc4c3OCC4)CC2)CC1 (mixture of isomers) [Example 29, trans-N-(4-{2-[4-(2,3-Dihydro-furo[2,3-c]pyridin-7-yl)-piperazin-1-yl]-ethyl}-cyclohexyl)-2-rac-(tetrahydro-furan-2-yl)-acetamide] | 9.31 | 354 | 45.2 | 173.5 |
| O=C(N[C@H]1CC[C@H](CCN2CCN(c3nccc4c3OCC4)CC2)CC1)C(O)C(F)(F)F (mixture of isomers) [Example 58, trans-N-(4-{2-[4-(2,3-Dihydro-furo[2,3-c]pyridin-7-yl)-piperazin-1-yl]-ethyl}-cyclohexyl)-(RS)-3,3,3-trifluoro-2-hydroxy-propionamide] | 13.9 | 712 | 32.9 | 185 |
| O=C(N[C@H]1CC[C@H](CCN2CCN(c3nccc4c3OCC4)CC2)CC1)C1CCCO1 (mixture of isomers) [Example 82, (RS)-Tetrahydro-furan-2-carboxylic acid trans-(4-{2-[4-(2,3-dihydro-furo[2,3-c]pyridin-7-yl)-piperazin-1-yl]-ethyl}-cyclohexyl)-amide] | 72.8 | 1140 | 20.4 | 145 |
| CCC(C)C(=O)N[C@H]1CC[C@H](CCN2CCN(c3nccc4c3OCC4)CC2)CC1 (mixture of isomers) [Example 83, trans-N-(4-{2-[4-(2,3-Dihydro-furo[2,3-c]pyridin-7-yl)-piperazin-1-yl]-ethyl}-cyclohexyl)-(RS)-2-methyl-butyramide] | 17.3 | 714 | 48.9 | 196.5 |
| O=C(N[C@H]1CC[C@H](CCN2CCN(c3nccc4c3OCC4)CC2)CC1)C1CCCOC1 (mixture of isomers) [Example 97, (RS)-Tetrahydro-pyran-3-carboxylic acid trans-(4-{2-[4-(2,3-dihydro-furo[2,3-c]pyridin-7-yl)-piperazin-1-yl]-ethyl}-cyclohexyl)-amide] | 23.1 | 604 | 27.8 | 203 |
| COC(C)CC(=O)N[C@H]1CC[C@H](CCN2CCN(c3nccc4c3OCC4)CC2)CC1 (mixture of isomers) [Example 101, trans-N-(4-{2-[4-(2,3-Dihydro-furo[2,3-c]pyridin-7-yl)-piperazin-1-yl]-ethyl}-cyclohexyl)-(RS)-3-methoxy-butyramide] | 8.85 | 633 | 55.5 | 168.5 |
| CC(=O)N[C@H]1CC[C@H](CCN2CCN(c3nccc4ccsc34)CC2)CC1 [Example 1, N-{trans-4-[2-(4-Thieno[2,3-c]pyridin-7-yl-piperazin-1-yl)-ethyl]-cyclohexyl}-acetamide] | 2.3 | 392 | 11.9 |  |
| CCC(=O)N[C@H]1CC[C@H](CCN2CCN(c3nccc4ccsc34)CC2)CC1 [Example 2, N-{trans-4-[2-(4-Thieno[2,3-c]pyridin-7-yl-piperazin-1-yl)-ethyl]-cyclohexyl}-propionamide] | 1.9 | 229 | 9.2 |  |
| CC(=O)N[C@H]1CC[C@H](CCN2CCN(c3nccc4c3OCC4)CC2)CC1 [Example 6, trans-N-(4-{2-[4-(2,3-Dihydro-furo[2,3-c]pyridin-7-yl)-piperazin-1-yl]-ethyl}-cyclohexyl)-acetamide] | 4 | 472 | 58.2 | 195 |
| O=C(CC1CCOCC1)N[C@H]1CC[C@H](CCN2CCN(c3nccc4c3OCC4)CC2)CC1 [Example 8, trans-N-(4-{2-[4-(2,3-Dihydro-furo[2,3-c]pyridin-7-yl)-piperazin-1-yl]-ethyl}-cyclohexyl)-2-(tetrahydro-pyran-4-yl)-acetamide] | 7.49 | 1480 | 48.9 | 222.5 |
| COCCC(=O)N[C@H]1CC[C@H](CCN2CCN(c3nccc4c3OCC4)CC2)CC1 [Example 9, trans-N-(4-{2-[4-(2,3-Dihydro-furo[2,3-c]pyridin-7-yl)-piperazin-1-yl]-ethyl}-cyclohexyl)-3-methoxy-propionamide] | 5.14 | 991 | 67.5 | 180 |
| CC(=O)N[C@H]1CC[C@H](CCN2CCN(c3nccc4ccoc34)CC2)CC1 [Example 10, trans-N-{4-[2-(4-Furo[2,3-c]pyridin-7-yl-piperazin-1-yl)-ethyl]-cyclohexyl}-acetamide] | 6.44 | 684 | 18.8 | 157 |
| O=C(N[C@H]1CC[C@H](CCN2CCN(c3nccc4ccoc34)CC2)CC1)C1CCOCC1 [Example 11, Tetrahydro-pyran-4-carboxylic acid trans-{4-[2-(4-furo[2,3-c]pyridin-7-yl-piperazin-1-yl)-ethyl]-cyclohexyl}-amide] | 22.6 | 511 | 7.29 | 211 |
| O=C(CC1CCOCC1)N[C@H]1CC[C@H](CCN2CCN(c3nccc4ccoc34)CC2)CC1 [Example 12, trans-N-{4-[2-(4-Furo[2,3-c]pyridin-7-yl-piperazin-1-yl)-ethyl]-cyclohexyl}-2-(tetrahydro-pyran-4-yl)-acetamide] | 14.7 | 1150 | 21.7 | 213 |
| COCCC(=O)N[C@H]1CC[C@H](CCN2CCN(c3nccc4ccoc34)CC2)CC1 [Example 13, trans-N-{4-[2-(4-Furo[2,3-c]pyridin-7-yl-piperazin-1-yl)-ethyl]-cyclohexyl}-3-methoxy-propionamide] | 7.85 | 1130 | 20.7 | 146 |
| CCC(=O)N[C@H]1CC[C@H](CCN2CCN(c3nccc4c3OCC4)CC2)CC1 [Example 18, trans-N-(4-{2-[4-(2,3-Dihydro-furo[2,3-c]pyridin-7-yl)-piperazin-1-yl]-ethyl}-cyclohexyl)-propionamide] | 3.94 | 648 | 43.3 | 196 |
| O=C(CC1COCCO1)N[C@H]1CC[C@H](CCN2CCN(c3nccc4c3OCC4)CC2)CC1 (stereo partly drawn) [Example 19, trans-N-(4-{2-[4-(2,3-Dihydro-furo[2,3-c]pyridin-7-yl)-piperazin-1-yl]-ethyl}-cyclohexyl)-2-[1,4]dioxan-2-yl-acetamide] | 8.9 | 1220 | 29.7 | 194.5 |

Now from value to molecule:

| Ki [1] [nM] | Ki [2] [nM] | Ki [3] [nM] | melting point [°C] | SMILES |
| --- | --- | --- | --- | --- |
| 10 | 433 | 7.7 |  | CO[C@@H]1CC[C@@H](CC(=O)N[C@H]2CC[C@H](CCN3CCN(c4nccc5ccsc45)CC3)CC2)C1 (racemic) [Example 5, 2-(trans-3-Methoxy-cyclopentyl)-N-{trans-4-[2-(4-thieno[2,3-c]pyridin-7-yl-piperazin-1-yl)-ethyl]cyclohexyl}-acetamide] |
| 9.32 | 975 | 8.16 | 193 | O=C(CC1COCCO1)N[C@H]1CC[C@H](CCN2CCN(c3nccc4ccoc34)CC2)CC1 (mixture of isomers) [Example 15, trans-2-rac-[1,4]Dioxan-2-yl-N-{4-[2-(4-furo[2,3-c]pyridin-7-yl-piperazin-1-yl)-ethyl]-cyclohexyl}-acetamide] |
| 1.9 | 401 | 10.6 |  | COCCC(=O)N[C@H]1CC[C@H](CCN2CCN(c3nccc4ccsc34)CC2)CC1 [Example 3, 3-Methoxy-N-{trans-4-[2-(4-thieno[2,3-c]pyridin-7-yl-piperazin-1-yl)-ethyl]-cyclohexyl}-propionamide] |
| 14 | 739 | 9.6 |  | CO[C@H]1CC[C@H](CC(=O)N[C@H]2CC[C@H](CCN3CCN(c4nccc5ccsc45)CC3)CC2)CC1 [Example 4, 2-(trans-4-Methoxy-cyclohexyl)-N-{trans-4-[2-(4-thieno[2,3-c]pyridin-7-yl-piperazin-1-yl)-ethyl]-cyclohexyl}-acetamide] |
| 13.1 | 354 | 15.6 | 236.5 | O=C(N[C@H]1CC[C@H](CCN2CCN(c3nccc4c3OCC4)CC2)CC1)C1CCOCC1 [Example 7, trans-Tetrahydro-pyran-4-carboxylic acid (4-{2-[4-(2,3-dihydro-furo[2,3-c]pyridin-7-yl)-piperazin-1-yl]-ethyl}-cyclohexyl)-amide] |
| 3.57 | 502 | 9.48 | 187.5 | CCC(=O)N[C@H]1CC[C@H](CCN2CCN(c3nccc4ccoc34)CC2)CC1 [Example 14, trans-N-{4-[2-(4-Furo[2,3-c]pyridin-7-yl-piperazin-1-yl)-ethyl]-cyclohexyl}-propionamide] |
| 17.7 | 1230 | 9.97 | 132 | COCC(=O)N[C@H]1CC[C@H](CCN2CCN(c3nccc4ccoc34)CC2)CC1 [Example 16, trans-N-{4-[2-(4-Furo[2,3-c]pyridin-7-yl-piperazin-1-yl)-ethyl]-cyclohexyl}-2-methoxy-acetamide] |
| 4.26 | 576 | 10.9 | 182 | CS(=O)(=O)CC(=O)N[C@H]1CC[C@H](CCN2CCN(c3nccc4ccoc34)CC2)CC1 [Example 17, trans-N-{4-[2-(4-Furo[2,3-c]pyridin-7-yl-piperazin-1-yl)-ethyl]-cyclohexyl}-2-methanesulfonyl-acetamide] |
| 6.08 |  | 48.5 | 187 | O=C(Cc1ccc2c(c1)OCO2)N[C@H]1CC[C@H](CCN2CCN(c3nccc4c3OCC4)CC2)CC1 [Example 80, trans-2-Benzo[1,3]dioxol-5-yl-N-(4-{2-[4-(2,3-dihydro-furo[2,3-c]pyridin-7-yl)-piperazin-1-yl]-ethyl}-cyclohexyl)-acetamide] |
